Data set [1] relates to mir-143 miRNA binding site. In words: GFP mir-143 sensor reporter in T-REx-HeLa cells. The data set is classed as cell-based, human. Particulars: for Mean fluorescence: T-REx-HeLa cells, 24 hours post-transfection. An excerpt:
Reporter systems have been developed herein to assess the ability of miRNA mimics to provoke a gene silencing response and to assess whether antisense oligomeric compounds targeting miRNAs can inhibit gene silencing activity. The T-REx™-HeLa cell line (Invitrogen Corp., Carlsbad, Calif.) was used for either stable or transient transfections with plasmids constitutively expressing miRNAs, pre-miRNAs, pri-miRNAs or mimics thereof, and, in some cases, antisense oligomeric compounds targeting the expressed miRNA were also transfected into the cells. It is understood that other mammalian cells lines can also be used in this reporter system. T-REx™-HeLa cells were routinely cultured in DMEM, high glucose (Invitrogen Corporation, Carlsbad, Calif.), supplemented with 10% fetal bovine serum (Invitrogen Corporation). […] Cells were harvested when they reached 90% confluence, and on the day before transfection with expression or reporter plasmids (described in detail below), the T-REx™-HeLa cells were seeded onto 24-well plates at 50,000 cells/well. The following day, cells were transfected according to standard published procedures with various combinations of plasmids using 2 μg Lipofectamine™ 2000 Reagent (Invitrogen) per μg of plasmid DNA. When transfecting oligomeric compounds, 1-3 μg of Lipofectamine™ 2000 Reagent was used per 100 nM oligomeric compound.
Plasmids used are as follows: The pcDNA3.1©/NT-GFP (Invitrogen) plasmid, containing a CMV promoter controlling expression of a GFP reporter sequence at the N-terminus of the transcription start site was used as a control plasmid. The pcDNA3.1©/NT-GFP-mir-143 sensor plasmid contains (in addition to the elements above) three 22-nucleotide sites encoding the mir-143 miRNA binding site, downstream of the GFP coding sequence and upstream of the polyadenylation signal. The pCR3-pri-mir-143 plasmid (“pri-mir-143”) is a CMV promoter-driven constitutive expression plasmid which expresses the 110-nucleotide mir-143 pri-miRNA sequence (SEQ ID NO: 38), to act as a mir-143 pri-miRNA mimic. The pCR3-pri-mir control (“pri-mir-control”) is a CMV promotor-driven constitutive expression plasmid which is designed to express a similar 110-nucleotide pri-miRNA sequence ([…] CAGC; SEQ ID NO: 862) wherein the mature mir-143 sequence has been replaced with an unrelated sequence and the predicted complementary strand opposite it within the pri-miRNA structure is replaced with a nearly complementary sequence in order to preserve the stem loop as well as the bulge structure of the natural mir-143 pri-miRNA. Additionally, in order to test the effect of an oligomeric compound targeting a miRNA, the T-REx™-HeLa cells were also transfected with the uniform 2′-MOE phosphorothioate (PS) antisense oligomeric compound ISIS Number 327901 (SEQ ID NO: 319), targeted to mir-143 previously described.
Twenty-four hours post-transfection, cells were trypsinized and GFP fluorescence was analyzed by flow cytometry.

Data set [2] deals with mir-143 binding sites. The data set can be described thus: pGL3-mir-143 sensor luciferase assay in HeLa cells. In kind it is cell-based, human. Particulars: HeLa cells, pGL3-mir-143 sensor with pCR3-pri-mir-143 (430). An excerpt:
In one embodiment, an expression system based on the pGL3-Control (Promega Corp., Madison Wis.) vector containing a CMV promoter controlling expression of a luciferase reporter sequence was used in transient transfections of HeLa cells with plasmids expressing miRNA or pri-miRNA mimics. To assess the ability of miRNA mimics to bind and regulate the expression of the luciferase reporter gene, two reporter plasmids were constructed: 1) a synthetic DNA fragment comprising two sites perfectly complementary to mir-143 were inserted into the pGL3-Control luciferase reporter vector, to create the pGL3-mir-143 sensor plasmid, and 2) a DNA fragment comprising the 3′-UTR of the LIM domain only 4 (LMO4) gene (predicted to be regulated by mir-143) was inserted into pGL3-Control to create pGL3-LMO4; this fragment was PCR-amplified using a primer beginning at position 1261 of the LMO4 sequence (GenBank Accession NM_006769.2, incorporated herein as SEQ ID: 809) and the downstream primer hybridizing to the poly-A tail. In each of these plasmids, the target site was placed downstream of the luciferase coding sequence and upstream of the polyadenylation signal in the 3′-UTR of the luciferase reporter vector. The unmodified pGL3-Control luciferase reporter vector was used as a control.
HeLa cells were routinely cultured and passaged as described, and on the day before transfection with expression or reporter plasmids, the HeLa cells were seeded onto 24-well plates 50,000 cells/well. Cells were transfected according to standard published procedures with various combinations of plasmids using 2 μg Lipofectamine™ 2000 Reagent (Invitrogen) per μg of plasmid DNA, or, when transfecting oligomeric compounds, 1.25 μg of Lipofectamine™ 2000 Reagent per 100 nM oligonucleotide or double-stranded RNA. The luciferase signal in each well was normalized to the Renilla luciferase (RL) activity produced from a co-transfected plasmid, pRL-CMV, which was transfected at 0.5 μg per well. Cells were treated at various dosages (4 nM, 20 nM, and 100 nM) with the following oligomeric compound mimics: 1) “ds-mir-143,” 2) “ds-Control,” 3) “pCR3-pri-mir-143,” or 4) “pri-mir-control,” as described supra. In accordance with methods described in Example 12, supra, a luciferase assay was performed 48-hours after transfection. Briefly, cells were lysed in passive lysis buffer (PLB; Promega), and 20 ul of the lysate was then assayed for RL activity using a Dual Luciferase Assay kit (Promega) according to the manufacturer's protocol. The results below are an average of three trials and are presented as percent pGL3-Control luciferase expression normalized to pRL-CMV expression (RL).
In another embodiment, HeLa cells were transfected with 0.03 μg pGL3-mir-143 sensor plasmid and 0.01 μg pRL-CMV plasmid, and, in addition, (except those samples described below as “without mir-143 pri-miRNA,”) were also transfected with 0.01 μg of an expression plasmid designed to express a mir-143 pri-miRNA mimic comprising a larger 430-nt fragment of the mir-143 primary miRNA transcript, referred to as “pCR3-pri-mir-143 (430)” ([…]; SEQ ID NO: 871). […] To further evaluate the ability of the mir-143 pri-miRNA mimic to inhibit luciferase activity from the sensor plasmid, and to assess the ability of oligomeric compounds to interfere with the inhibition of pGL3-mir-143 sensor luciferase expression by the mir-143 pri-miRNA mimic, pGL3-mir-143 sensor-expressing HeLa cells treated with pCR3-pri-mir-143 (430) were additionally treated with varying concentrations (0-, 6.7- or 20 nM) of the following oligomeric compounds: 1) ISIS Number 327901 (SEQ ID NO: 319), a uniform 2′-MOE oligomeric compound targeting mir-143; 2) ISIS Number 342673 (SEQ ID NO: 758), a uniform 2′-MOE scrambled control; or 3) ISIS Number 327924 (SEQ ID NO: 342) targeting an unrelated miRNA (mir-129-2). […]

In the oligonucleotide strings, read from the 5' end, every base follows the letter of its sugar. An asterisk marks phosphorothioate; unmarked linkages are phosphodiester. Other units and linkages are bracketed, terminal groups are in braces. A string of capitals states the bases alone. e = 2'-O-(2-methoxyethyl) (MOE); [5mC] = 5-methylcytosine

Turning to “327901 (antisense eT*eG*eA*eG*e[5mC]*eT*eA*e[5mC]*eA*eG*eT*eG*e[5mC]*eT*eT*e[5mC]*eA*eT*e[5mC]*eT*e[5mC]*eA) [compound 327901]”, the Mean fluorescence is given as 4.2 arbitrary units in data set [1] (oligo with GFP mir-143 sensor only); 3.7 arbitrary units in data set [1] (oligo with pri-mir-143, no GFP plasmid); 4.1 arbitrary units in data set [1] (oligo with pri-mir-143 and GFP mir-143 sensor). The Relative luciferase activity was found to be 4.0 in data set [2] (6.7 nM) and 6.4 in data set [2] (20 nM).
Take “342673 (antisense eA*eG*eA*e[5mC]*eT*eA*eG*e[5mC]*eG*eG*eT*eA*eT*e[5mC]*eT*eT*eT*eA*eT*e[5mC]*e[5mC]*e[5mC]) [compound 342673]”: the Relative luciferase activity amounted to 1.3 in data set [2] (6.7 nM) and 1.5 in data set [2] (20 nM).
Consider “TGAGCTACAGTGCTTCATCTCA [ISIS 327901] (chemistry not given here) [uniform 2′-MOE PS; targets mir-143]”, for which the “recovery of GFP fluorescence” value in data set [1] (with 20 nM mir-143 dsRNA, 4-, 20- or 100 nM) is reported as “blocked the inhibitory effect of the mir-143 dsRNA oligomeric compound”.

Source of the values: patent publication US8178506B2, “Oligomeric compounds and compositions for use in modulation of small non-coding RNAs” (Regulus Therapeutics Inc., priority 2003, dated 2012).
